Test results taken from patent US20190330224A1, “ACC INHIBITORS AND USES THEREOF” (Gilead Apollo, LLC, priority 2015, published 2019).
≈ marks a conversion by molar mass, not a printed value.

Columns and labels:
Human ACC2 = Human ACC2 (Homo sapiens, UniProt O00763); experiment: In vitro ACC2 inhibition assay (ADP-Glo), human ACC2; type: biochemical; conditions: 5 nM ACC2, 20 μM ATP, 20 μM acetyl-CoA
[1] = tested on: C. parapsilosis ATCC 22019; experiment: Anti-Fungal Activity Assay (broth microtiter MIC), C. parapsilosis; type: cell-based, Candida parapsilosis; conditions: Lodderomyces parapsilosis, ATCC22019, 48 h, 3 replicates; MIC recorded at 48 h; read-out: MIC C. parapsilosis ATCC 22019
Protocol: (§1) Compounds of the present invention were evaluated in an Anti-Fungal Activity Assay. An exemplary procedure for the assay, which measures the susceptibility of various Candida species to anti-fungal compounds, follows. Compounds to be tested (including fluconazole and amphotericin B) were dissolved in DMSO to obtain a solution having a concentration of 1 mg/mL. […] All species were grown from frozen stock by directly plating on to freshly prepared Sabouraud Dextrose agar (BD, Difco) and incubated overnight in ambient air at 35° C. for 24 h. A direct suspension was prepared in RPMI 1640+MOPS (Lonza, Biowhittaker) by taking individual colonies from the overnight cultures using sterile swabs soaked in sterile saline. The concentration of the suspension was determined using pre-determined standard curves. […] Broth microtiter MIC challenge plates were prepared following CLSI guidelines (M27-A3, Vol. 28 No. 14). The original CLSI guidelines focused on reading Candida MICs after 48 h of incubation. As reading after only 24 h offers a clear advantage of patient care, QC limits are being established for all drugs at 24 h. That being said there are no known interpretive breakpoints for amphotericin B at 24 h and the current fluconazole interpretive breakpoints are based on a 48 h reading. The MIC breakpoints for the test compounds were recorded at 48 h, and for the soraphen the 24 h time-point was added. All MIC determinations were achieved by visually comparing the growth found in the antibiotic challenged wells to that of the growth control.

C. albicans ATCC 90028 = experiment: Anti-Fungal Activity Assay (broth microtiter MIC), C. albicans; type: cell-based, Candida albicans; conditions: Candida albicans, ATCC90028, 48 h, 3 replicates; MIC recorded at 48 h; read-out: MIC C. albicans ATCC 90028
Protocol: as §1

C. krusei ATCC 6258 = experiment: Anti-Fungal Activity Assay (broth microtiter MIC), C. krusei; type: cell-based, Candida krusei; conditions: Pichia kudriavzevii, ATCC6258, 48 h, 3 replicates; MIC recorded at 48 h; read-out: MIC C. krusei ATCC 6258
Protocol: as §1

Sequence of Human ACC2 (O00763 whole entry): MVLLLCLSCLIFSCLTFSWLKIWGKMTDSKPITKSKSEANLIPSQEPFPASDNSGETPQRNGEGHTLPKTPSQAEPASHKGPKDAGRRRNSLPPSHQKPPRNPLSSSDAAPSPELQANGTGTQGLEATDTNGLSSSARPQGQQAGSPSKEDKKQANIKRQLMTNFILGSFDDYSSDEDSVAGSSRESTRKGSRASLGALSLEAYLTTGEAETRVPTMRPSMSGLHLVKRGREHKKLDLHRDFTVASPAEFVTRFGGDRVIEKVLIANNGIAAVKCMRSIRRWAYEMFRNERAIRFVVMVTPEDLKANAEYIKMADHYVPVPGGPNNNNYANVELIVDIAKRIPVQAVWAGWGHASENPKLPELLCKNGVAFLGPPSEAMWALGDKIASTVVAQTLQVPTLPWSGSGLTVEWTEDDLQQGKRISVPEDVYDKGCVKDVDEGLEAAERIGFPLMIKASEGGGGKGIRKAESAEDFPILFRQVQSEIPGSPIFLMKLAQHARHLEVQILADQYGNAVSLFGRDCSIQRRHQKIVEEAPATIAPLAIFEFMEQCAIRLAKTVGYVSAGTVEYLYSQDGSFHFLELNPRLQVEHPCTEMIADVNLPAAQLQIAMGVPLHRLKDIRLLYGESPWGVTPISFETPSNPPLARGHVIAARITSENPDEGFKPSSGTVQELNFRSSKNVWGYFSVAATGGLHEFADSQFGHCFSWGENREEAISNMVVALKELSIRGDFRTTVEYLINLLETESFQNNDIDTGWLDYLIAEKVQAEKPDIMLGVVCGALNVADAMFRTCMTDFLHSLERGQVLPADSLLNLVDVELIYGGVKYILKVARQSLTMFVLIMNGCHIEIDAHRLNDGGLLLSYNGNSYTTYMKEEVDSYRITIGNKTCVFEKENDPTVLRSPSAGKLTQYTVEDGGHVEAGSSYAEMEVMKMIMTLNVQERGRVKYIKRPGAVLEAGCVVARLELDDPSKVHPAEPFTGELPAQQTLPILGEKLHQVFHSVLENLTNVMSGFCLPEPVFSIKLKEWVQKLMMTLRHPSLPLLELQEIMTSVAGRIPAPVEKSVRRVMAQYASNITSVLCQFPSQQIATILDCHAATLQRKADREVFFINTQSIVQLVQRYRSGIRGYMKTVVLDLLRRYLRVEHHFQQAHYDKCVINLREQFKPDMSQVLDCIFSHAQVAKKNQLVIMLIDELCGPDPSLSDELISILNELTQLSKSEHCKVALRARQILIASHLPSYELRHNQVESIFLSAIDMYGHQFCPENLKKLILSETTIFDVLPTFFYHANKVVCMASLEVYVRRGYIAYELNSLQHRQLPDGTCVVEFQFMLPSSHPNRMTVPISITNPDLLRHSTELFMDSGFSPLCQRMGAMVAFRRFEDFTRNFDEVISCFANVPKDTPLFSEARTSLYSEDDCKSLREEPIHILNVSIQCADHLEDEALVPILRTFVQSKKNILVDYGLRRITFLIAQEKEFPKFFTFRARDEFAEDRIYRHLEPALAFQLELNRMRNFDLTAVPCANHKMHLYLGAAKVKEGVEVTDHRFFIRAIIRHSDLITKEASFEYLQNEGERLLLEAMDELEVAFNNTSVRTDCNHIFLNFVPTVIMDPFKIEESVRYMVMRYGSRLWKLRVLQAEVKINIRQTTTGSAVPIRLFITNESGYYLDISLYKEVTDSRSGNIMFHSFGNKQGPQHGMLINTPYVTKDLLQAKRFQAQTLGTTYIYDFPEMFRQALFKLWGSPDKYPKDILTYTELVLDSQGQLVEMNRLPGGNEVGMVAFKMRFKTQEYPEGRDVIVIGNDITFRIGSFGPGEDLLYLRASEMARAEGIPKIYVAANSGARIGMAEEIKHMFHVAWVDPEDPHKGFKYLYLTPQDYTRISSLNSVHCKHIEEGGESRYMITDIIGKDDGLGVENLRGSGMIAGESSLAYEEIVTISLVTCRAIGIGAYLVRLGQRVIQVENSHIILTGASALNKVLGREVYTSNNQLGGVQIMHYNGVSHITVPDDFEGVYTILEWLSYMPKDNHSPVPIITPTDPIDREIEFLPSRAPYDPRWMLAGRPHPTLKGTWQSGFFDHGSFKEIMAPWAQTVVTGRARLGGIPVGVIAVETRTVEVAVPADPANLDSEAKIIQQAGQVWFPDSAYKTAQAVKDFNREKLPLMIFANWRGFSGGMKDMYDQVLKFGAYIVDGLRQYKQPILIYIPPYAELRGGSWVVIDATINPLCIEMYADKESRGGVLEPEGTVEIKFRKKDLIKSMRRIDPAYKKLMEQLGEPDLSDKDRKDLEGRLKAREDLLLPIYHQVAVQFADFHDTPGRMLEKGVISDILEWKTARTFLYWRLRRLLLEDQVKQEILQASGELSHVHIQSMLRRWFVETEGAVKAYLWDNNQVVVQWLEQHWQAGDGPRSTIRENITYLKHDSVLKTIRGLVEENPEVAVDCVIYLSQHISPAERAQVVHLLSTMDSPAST

Structure (SMILES) | IC50 (Human ACC2) [nM] | MIC [1] [µg/mL] | MIC (C. albicans ATCC 90028) [µg/mL] | MIC (C. krusei ATCC 6258) [µg/mL]
COc1ccc(F)cc1[C@H](Cn1c(=O)n([C@@H]2CCCNC2=O)c(=O)c2c(C)c(-n3nccn3)sc21)OC1CCOCC1 [Compound I-38, 1-((R)-2-(5-fluoro-2-methoxyphenyl)-2-((tetrahydro-2H-pyran-4-yl)oxy)ethyl)-5-methyl-3-((R)-2-oxopiperidin-3-yl)-6-(2H-1,2,3-triazol-2-yl)thieno[2,3-d]pyrimidine-2,4(1H,3H)-dione] | 10 to 100 | 2.1 to 4 (≈ 3.51 to 6.68 µM) | 2.1 to 4 (≈ 3.51 to 6.68 µM) | 2.1 to 4 (≈ 3.51 to 6.68 µM)
COc1ccccc1[C@H](Cn1c(=O)n(C2CCCNC2=O)c(=O)c2c(C)c(-c3ncco3)sc21)OC1CCOCC1 (stereo partly drawn) [Compound I-49, 1-((R)-2-(2-methoxyphenyl)-2-((tetrahydro-2H-pyran-4-yl)oxy)ethyl)-5-methyl-6-(oxazol-2-yl)-3-(2-oxopiperidin-3-yl)thieno[2,3-d]pyrimidine-2,4(1H,3H)-dione] | 10 to 100 | 2.1 to 4 (≈ 3.62 to 6.89 µM) | 1.1 to 2 (≈ 1.89 to 3.44 µM) | 2.1 to 4 (≈ 3.62 to 6.89 µM)
COc1ccccc1[C@H](Cn1c(=O)n(C2CCCN(C)C2=O)c(=O)c2c(C)c(-c3ncco3)sc21)OC1CCOCC1 (stereo partly drawn) [Compound I-50, 1-((R)-2-(2-methoxyphenyl)-2-((tetrahydro-2H-pyran-4-yl)oxy)ethyl)-5-methyl-3-(1-methyl-2-oxopiperidin-3-yl)-6-(oxazol-2-yl)thieno[2,3-d]pyrimidine-2,4(1H,3H)-dione] | 10 to 100 | 2.1 to 4 (≈ 3.53 to 6.73 µM) | 2.1 to 4 (≈ 3.53 to 6.73 µM) | 2.1 to 4 (≈ 3.53 to 6.73 µM)
COc1ccc(F)cc1[C@H](Cn1c(=O)n(C2CCCN(C)C2=O)c(=O)c2c(C)c(-c3ncco3)sc21)OC1CCOCC1 (stereo partly drawn) [Compound I-52, 1-((R)-2-(5-fluoro-2-methoxyphenyl)-2-((tetrahydro-2H-pyran-4-yl)oxy)ethyl)-5-methyl-3-(I-methyl-2-oxopiperidin-3-yl)-6-(oxazol-2-yl)thieno[2,3-d]pyrimidine-2,4(1H,3H)-dione] | 10 to 100 | 2.1 to 4 (≈ 3.43 to 6.53 µM) | 2.1 to 4 (≈ 3.43 to 6.53 µM) | 1.1 to 2 (≈ 1.8 to 3.26 µM)
COc1ccccc1[C@H](Cn1c(=O)n(C2CCNC2=O)c(=O)c2c(C)c(-c3ncco3)sc21)OC1CCOCC1 (stereo partly drawn) [Compound I-56, 1-((R)-2-(2-methoxyphenyl)-2-((tetrahydro-2H-pyran-4-yl)oxy)ethyl)-5-methyl-6-(oxazol-2-yl)-3-(2-oxopyrrolidin-3-yl)thieno[2,3-d]pyrimidine-2,4(1H,3H)-dione] | 2 to 10 | 2.1 to 4 (≈ 3.71 to 7.06 µM) | 2.1 to 4 (≈ 3.71 to 7.06 µM) | 2.1 to 4 (≈ 3.71 to 7.06 µM)
COc1ccccc1[C@H](Cn1c(=O)n(C2CCN(C)C2=O)c(=O)c2c(C)c(-c3ncco3)sc21)OC1CCOCC1 (stereo partly drawn) [Compound I-57, 1-((R)-2-(2-methoxyphenyl)-2-((tetrahydro-2H-pyran-4-yl)oxy)ethyl)-5-methyl-3-(1-methyl-2-oxopyrrolidin-3-yl)-6-(oxazol-2-yl)thieno[2,3-d]pyrimidine-2,4(1H,3H)-dione] | 10 to 100 | 2.1 to 4 (≈ 3.62 to 6.89 µM) | 1.1 to 2 (≈ 1.89 to 3.44 µM) | 1.1 to 2 (≈ 1.89 to 3.44 µM)
COc1ccc(F)cc1[C@H](Cn1c(=O)n(C2CCN(C)C2=O)c(=O)c2c(C)c(-c3ncco3)sc21)OC1CCOCC1 (stereo partly drawn) [Compound I-59, 1-((R)-2-(5-fluoro-2-methoxyphenyl)-2-((tetrahydro-2H-pyran-4-yl)oxy)ethyl)-5-methyl-3-(1-methyl-2-oxopyrrolidin-3-yl)-6-(oxazol-2-yl)thieno[2,3-d]pyrimidine-2,4(1H,3H)-dione] | 2 to 10 | 2.1 to 4 (≈ 3.51 to 6.68 µM) | 1.1 to 2 (≈ 1.84 to 3.34 µM) | 0.25 to 1 (≈ 0.418 to 1.67 µM)
COc1ccc(F)cc1[C@H](Cn1c(=O)n([C@]2(C)CCC(=O)NC2)c(=O)c2c(C)c(-n3nccn3)sc21)OCCO [Compound I-133, 1-((R)-2-(5-fluoro-2-methoxyphenyl)-2-(2-hydroxy-ethoxy)ethyl)-5-methyl-3-((R)-3-methyl-6-oxopiperidin-3-yl)-6-(2H-1,2,3-triazol-2-yl)thieno[2,3-d]pyrimidine-2,4(1H,3H)-dione] | 10 to 100 | 2.1 to 4 (≈ 3.67 to 6.99 µM) | 2.1 to 4 (≈ 3.67 to 6.99 µM) | 2.1 to 4 (≈ 3.67 to 6.99 µM)
COc1ccc(F)cc1[C@H](Cn1c(=O)n([C@@]2(C)CCC(=O)NC2)c(=O)c2c(C)c(-n3nccn3)sc21)OCCO [Compound I-135, 1-((R)-2-(5-fluoro-2-methoxyphenyl)-2-(2-hydroxy-ethoxy)ethyl)-5-methyl-3-((S)-3-methyl-6-oxopiperidin-3-yl)-6-(2H-1,2,3-triazol-2-yl)thieno[2,3-d]pyrimidine-2,4(1H,3H)-dione] | 10 to 100 | 2.1 to 4 (≈ 3.67 to 6.99 µM) | 2.1 to 4 (≈ 3.67 to 6.99 µM) | 2.1 to 4 (≈ 3.67 to 6.99 µM)

More lines, now with the values ahead:

IC50 (Human ACC2) [nM] | MIC [1] [µg/mL] | MIC (C. albicans ATCC 90028) [µg/mL] | MIC (C. krusei ATCC 6258) [µg/mL] | Structure (SMILES)
10 to 100 | 2.1 to 4 (≈ 3.51 to 6.68 µM) | 1.1 to 2 (≈ 1.84 to 3.34 µM) | 2.1 to 4 (≈ 3.51 to 6.68 µM) | COc1ccc(F)cc1[C@H](Cn1c(=O)n(C2CCCNC2=O)c(=O)c2c(C)c(-c3ncco3)sc21)OC1CCOCC1 (stereo partly drawn) [Compound I-51, 1-((R)-2-(5-fluoro-2-methoxyphenyl)-2-((tetrahydro-2H-pyran-4-yl)oxy)ethyl)-5-methyl-6-(oxazol-2-yl)-3-(2-oxopiperidin-3-yl)thieno[2,3-d]pyrimidine-2,4(1H,3H)-dione]
2 to 10 | 2.1 to 4 (≈ 3.59 to 6.84 µM) | 2.1 to 4 (≈ 3.59 to 6.84 µM) | 2.1 to 4 (≈ 3.59 to 6.84 µM) | COc1ccc(F)cc1[C@H](Cn1c(=O)n(C2CCNC2=O)c(=O)c2c(C)c(-c3ncco3)sc21)OC1CCOCC1 (stereo partly drawn) [Compound I-58, 1-((R)-2-(5-fluoro-2-methoxyphenyl)-2-((tetrahydro-2H-pyran-4-yl)oxy)ethyl)-5-methyl-6-(oxazol-2-yl)-3-(2-oxopyrrolidin-3-yl)thieno[2,3-d]pyrimidine-2,4(1H,3H)-dione]
10 to 100 | 2.1 to 4 (≈ 3.76 to 7.16 µM) | 2.1 to 4 (≈ 3.76 to 7.16 µM) | 2.1 to 4 (≈ 3.76 to 7.16 µM) | COc1ccc(F)cc1[C@H](Cn1c(=O)n([C@H]2CCCNC2=O)c(=O)c2c(C)c(-c3ncco3)sc21)OCCO [Compound I-62, 1-((R)-2-(5-fluoro-2-methoxyphenyl)-2-(2-hydroxy-ethoxy)ethyl)-5-methyl-6-(oxazol-2-yl)-3-((S)-2-oxopiperidin-3-yl)thieno[2,3-d]pyrimidine-2,4(1H,3H)-dione]
10 to 100 | 2.1 to 4 (≈ 3.67 to 6.99 µM) | 2.1 to 4 (≈ 3.67 to 6.99 µM) | 2.1 to 4 (≈ 3.67 to 6.99 µM) | COc1ccc(F)cc1[C@H](Cn1c(=O)n([C@H]2CCCN(C)C2=O)c(=O)c2c(C)c(-c3ncco3)sc21)OCCO [Compound I-63, 1-((R)-2-(5-fluoro-2-methoxyphenyl)-2-(2-hydroxy-ethoxy)ethyl)-5-methyl-3-((S)-1-methyl-2-oxopiperidin-3-yl)-6-(oxazol-2-yl)thieno[2,3-d]pyrimidine-2,4(1H,3H)-dione]
10 to 100 | 2.1 to 4 (≈ 3.76 to 7.16 µM) | 2.1 to 4 (≈ 3.76 to 7.16 µM) | 2.1 to 4 (≈ 3.76 to 7.16 µM) | COc1ccc(F)cc1[C@H](Cn1c(=O)n([C@@H]2CCCNC2=O)c(=O)c2c(C)c(-c3ncco3)sc21)OCCO [Compound I-64, 1-((R)-2-(5-fluoro-2-methoxyphenyl)-2-(2-hydroxy-ethoxy)ethyl)-5-methyl-6-(oxazol-2-yl)-3-((R)-2-oxopiperidin-3-yl)thieno[2,3-d]pyrimidine-2,4(1H,3H)-dione]
10 to 100 | 2.1 to 4 (≈ 3.67 to 6.99 µM) | 2.1 to 4 (≈ 3.67 to 6.99 µM) | 2.1 to 4 (≈ 3.67 to 6.99 µM) | COc1ccc(F)cc1[C@H](Cn1c(=O)n([C@@H]2CCCN(C)C2=O)c(=O)c2c(C)c(-c3ncco3)sc21)OCCO [Compound I-65, 1-((R)-2-(5-fluoro-2-methoxyphenyl)-2-(2-hydroxy-ethoxy)ethyl)-5-methyl-3-((R)-1-methyl-2-oxopiperidin-3-yl)-6-(oxazol-2-yl)thieno[2,3-d]pyrimidine-2,4(1H,3H)-dione]
